ChEMBL document CHEMBL3132769, “Fragment growing to retain or alter the selectivity of anchored kinase hinge-binding fragments” (Medchemcomm, 2014)

Tests used:
[1] = target: Cyclin-dependent kinase 2 (Homo sapiens) (UniProt P24941); test: Inhibition of human full length CDK2 expressed in baculovirus assessed as substrate phosphorylation using fluorescence-labelled peptides as substrate at 95 uM after 90 mins by microfluidic peptide phosphorylation assay
[2] = target: Fibroblast growth factor receptor 1 (Homo sapiens) (UniProt P11362); test: Inhibition of human FGFR1 catalytic domain expressed in baculovirus assessed as substrate phosphorylation using fluorescence-labelled peptides as substrate at 95 uM after 90 mins by microfluidic peptide phosphorylation assay
Fibroblast growth factor receptor 1 (Homo sapiens), sequence (P11362 22-822 limits assumed): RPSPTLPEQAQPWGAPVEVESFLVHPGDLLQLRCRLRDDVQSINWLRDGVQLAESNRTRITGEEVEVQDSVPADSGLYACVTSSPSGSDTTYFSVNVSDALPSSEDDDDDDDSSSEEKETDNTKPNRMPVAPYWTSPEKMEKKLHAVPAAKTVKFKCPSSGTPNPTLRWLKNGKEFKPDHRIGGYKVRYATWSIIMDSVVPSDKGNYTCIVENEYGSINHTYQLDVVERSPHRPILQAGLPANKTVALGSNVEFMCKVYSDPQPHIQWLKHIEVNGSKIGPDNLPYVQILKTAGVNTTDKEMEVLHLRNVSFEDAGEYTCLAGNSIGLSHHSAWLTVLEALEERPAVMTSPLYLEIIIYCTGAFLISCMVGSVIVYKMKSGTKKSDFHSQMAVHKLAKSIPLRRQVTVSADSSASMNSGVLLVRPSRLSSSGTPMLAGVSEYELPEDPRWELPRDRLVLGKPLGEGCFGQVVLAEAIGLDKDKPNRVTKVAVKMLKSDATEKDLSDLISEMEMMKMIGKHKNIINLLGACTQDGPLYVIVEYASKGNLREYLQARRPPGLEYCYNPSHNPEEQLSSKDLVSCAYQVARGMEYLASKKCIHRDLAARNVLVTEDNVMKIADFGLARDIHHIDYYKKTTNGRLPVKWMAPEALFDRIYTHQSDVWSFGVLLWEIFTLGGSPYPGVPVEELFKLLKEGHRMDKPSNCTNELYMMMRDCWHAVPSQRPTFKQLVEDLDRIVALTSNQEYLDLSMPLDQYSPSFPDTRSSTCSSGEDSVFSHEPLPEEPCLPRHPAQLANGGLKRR

[3] = target: Calcium/calmodulin-dependent protein kinase type II subunit gamma (Homo sapiens) (UniProt Q13555); test: Inhibition of human CAMK2 gamma catalytic domain expressed in baculovirus assessed as substrate phosphorylation using fluorescence-labelled peptides as substrate at 0.2 uM after 90 mins by microfluidic peptide phosphorylation assay
Calcium/calmodulin-dependent protein kinase type II subunit gamma (Homo sapiens), sequence (Q13555 whole entry, the tested form may be a part): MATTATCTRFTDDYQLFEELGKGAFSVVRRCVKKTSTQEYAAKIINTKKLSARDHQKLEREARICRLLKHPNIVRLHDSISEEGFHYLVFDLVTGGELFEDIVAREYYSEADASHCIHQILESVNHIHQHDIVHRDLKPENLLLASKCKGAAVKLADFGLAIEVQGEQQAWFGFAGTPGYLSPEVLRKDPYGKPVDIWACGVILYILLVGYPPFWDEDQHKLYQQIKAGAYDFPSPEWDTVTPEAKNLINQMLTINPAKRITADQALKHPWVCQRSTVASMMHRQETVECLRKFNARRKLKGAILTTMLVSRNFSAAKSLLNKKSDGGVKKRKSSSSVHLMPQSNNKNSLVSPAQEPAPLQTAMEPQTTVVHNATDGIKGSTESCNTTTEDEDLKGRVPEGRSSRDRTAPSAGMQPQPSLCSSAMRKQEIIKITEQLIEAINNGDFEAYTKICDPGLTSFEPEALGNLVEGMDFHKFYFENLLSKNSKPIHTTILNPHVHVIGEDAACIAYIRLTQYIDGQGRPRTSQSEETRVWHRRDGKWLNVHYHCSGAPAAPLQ

[4] = target: Aurora kinase B (Homo sapiens) (UniProt Q96GD4); test: Inhibition of human full length AurB expressed in baculovirus assessed as substrate phosphorylation using fluorescence-labelled peptides as substrate at 0.2 uM after 90 mins by microfluidic peptide phosphorylation assay
Aurora kinase B (Homo sapiens), sequence (Q96GD4 whole entry, the tested form may be a part): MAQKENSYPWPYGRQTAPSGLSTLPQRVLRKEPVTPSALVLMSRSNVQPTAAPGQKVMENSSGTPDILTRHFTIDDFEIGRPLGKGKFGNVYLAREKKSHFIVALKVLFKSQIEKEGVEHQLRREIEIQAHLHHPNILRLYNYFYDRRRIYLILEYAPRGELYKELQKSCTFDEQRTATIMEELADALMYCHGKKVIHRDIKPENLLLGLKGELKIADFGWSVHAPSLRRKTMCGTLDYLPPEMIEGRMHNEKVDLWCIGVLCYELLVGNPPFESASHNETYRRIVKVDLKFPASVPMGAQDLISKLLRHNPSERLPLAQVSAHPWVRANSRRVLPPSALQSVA

[5] = target: Hepatocyte growth factor receptor (Homo sapiens) (UniProt P08581); test: Inhibition of human MET cytoplasmic domain expressed in baculovirus assessed as substrate phosphorylation using fluorescence-labelled peptides as substrate at 0.2 uM after 90 mins by microfluidic peptide phosphorylation assay
Hepatocyte growth factor receptor (Homo sapiens), sequence (P08581 whole entry, the tested form may be a part): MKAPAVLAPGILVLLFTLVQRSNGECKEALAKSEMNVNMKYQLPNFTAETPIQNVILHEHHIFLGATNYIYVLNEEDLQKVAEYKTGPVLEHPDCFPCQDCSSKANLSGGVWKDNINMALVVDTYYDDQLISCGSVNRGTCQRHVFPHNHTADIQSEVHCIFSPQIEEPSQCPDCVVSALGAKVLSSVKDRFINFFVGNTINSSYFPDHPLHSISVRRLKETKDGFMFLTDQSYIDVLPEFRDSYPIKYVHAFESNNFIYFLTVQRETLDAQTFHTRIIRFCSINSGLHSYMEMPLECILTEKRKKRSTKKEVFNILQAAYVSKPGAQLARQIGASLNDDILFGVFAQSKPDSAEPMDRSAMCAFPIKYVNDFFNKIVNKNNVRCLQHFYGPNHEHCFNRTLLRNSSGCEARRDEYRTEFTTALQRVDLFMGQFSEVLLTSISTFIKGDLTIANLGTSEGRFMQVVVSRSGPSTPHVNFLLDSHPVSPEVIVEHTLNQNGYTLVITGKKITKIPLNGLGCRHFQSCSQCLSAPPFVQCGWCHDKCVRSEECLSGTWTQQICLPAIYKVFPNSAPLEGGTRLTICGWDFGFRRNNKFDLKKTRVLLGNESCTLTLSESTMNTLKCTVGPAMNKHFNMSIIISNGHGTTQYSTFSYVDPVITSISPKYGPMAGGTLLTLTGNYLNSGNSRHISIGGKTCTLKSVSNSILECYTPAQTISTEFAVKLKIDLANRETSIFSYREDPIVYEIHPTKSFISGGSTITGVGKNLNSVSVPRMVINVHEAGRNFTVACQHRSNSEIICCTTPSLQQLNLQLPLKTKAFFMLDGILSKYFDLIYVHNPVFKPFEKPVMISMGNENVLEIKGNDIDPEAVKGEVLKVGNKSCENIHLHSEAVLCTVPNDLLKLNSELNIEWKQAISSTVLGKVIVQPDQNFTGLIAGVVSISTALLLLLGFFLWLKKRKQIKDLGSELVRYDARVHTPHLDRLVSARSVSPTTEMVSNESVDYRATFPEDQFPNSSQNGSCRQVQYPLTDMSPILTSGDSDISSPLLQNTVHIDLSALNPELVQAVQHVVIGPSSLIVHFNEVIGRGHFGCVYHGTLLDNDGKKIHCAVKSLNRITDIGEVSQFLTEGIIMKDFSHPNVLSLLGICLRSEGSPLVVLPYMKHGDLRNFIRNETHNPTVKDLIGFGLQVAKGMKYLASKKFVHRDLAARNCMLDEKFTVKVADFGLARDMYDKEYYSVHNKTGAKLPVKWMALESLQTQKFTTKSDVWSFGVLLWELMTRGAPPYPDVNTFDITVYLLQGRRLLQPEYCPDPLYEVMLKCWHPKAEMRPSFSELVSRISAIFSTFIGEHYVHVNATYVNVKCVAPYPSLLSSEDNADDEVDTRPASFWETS

[6] = target: Fibroblast growth factor receptor 1 (Homo sapiens) (UniProt P11362); test: Inhibition of human FGFR1 catalytic domain expressed in baculovirus assessed as substrate phosphorylation using fluorescence-labelled peptides as substrate at 0.2 uM after 90 mins by microfluidic peptide phosphorylation assay
[7] = target: Insulin receptor (Homo sapiens) (UniProt P06213); test: Inhibition of human INSR catalytic domain expressed in baculovirus assessed as substrate phosphorylation using fluorescence-labelled peptides as substrate at 0.06 uM after 90 mins by microfluidic peptide phosphorylation assay
[8] = target: T1, Protein kinase C epsilon type (Homo sapiens) (UniProt Q02156); test: Inhibition of human truncated PKC epsilon expressed in baculovirus assessed as substrate phosphorylation using fluorescence-labelled peptides as substrate at 420 uM after 90 mins by microfluidic peptide phosphorylation assay
T1 sequence (whole entry): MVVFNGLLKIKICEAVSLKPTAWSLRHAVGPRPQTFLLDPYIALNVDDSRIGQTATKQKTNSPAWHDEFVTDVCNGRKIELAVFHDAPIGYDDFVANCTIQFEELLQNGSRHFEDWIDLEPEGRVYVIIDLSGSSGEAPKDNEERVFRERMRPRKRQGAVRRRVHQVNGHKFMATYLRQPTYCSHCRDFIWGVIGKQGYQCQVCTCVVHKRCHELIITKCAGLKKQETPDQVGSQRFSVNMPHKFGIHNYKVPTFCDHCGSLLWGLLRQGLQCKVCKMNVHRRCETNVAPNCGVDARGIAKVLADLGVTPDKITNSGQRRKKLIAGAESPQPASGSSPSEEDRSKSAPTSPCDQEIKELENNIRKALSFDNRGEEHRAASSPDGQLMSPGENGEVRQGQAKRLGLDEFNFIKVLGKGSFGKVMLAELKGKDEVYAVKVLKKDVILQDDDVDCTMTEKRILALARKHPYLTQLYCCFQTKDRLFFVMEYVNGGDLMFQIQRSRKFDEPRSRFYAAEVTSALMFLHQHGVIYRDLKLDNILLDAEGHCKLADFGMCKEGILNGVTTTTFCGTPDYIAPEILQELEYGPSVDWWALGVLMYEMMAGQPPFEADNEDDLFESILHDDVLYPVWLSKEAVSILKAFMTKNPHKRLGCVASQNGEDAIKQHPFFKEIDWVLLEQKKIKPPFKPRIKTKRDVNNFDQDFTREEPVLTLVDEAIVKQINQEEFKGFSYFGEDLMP

[9] = target: Calcium/calmodulin-dependent protein kinase type II subunit gamma (Homo sapiens) (UniProt Q13555); test: Inhibition of human CAMK2 gamma catalytic domain expressed in baculovirus assessed as substrate phosphorylation using fluorescence-labelled peptides as substrate at 420 uM after 90 mins by microfluidic peptide phosphorylation assay
[10] = target: T2, Interleukin-1 receptor-associated kinase 4 (Homo sapiens) (UniProt Q9NWZ3); test: Inhibition of human IRAK4 catalytic domain expressed in baculovirus assessed as substrate phosphorylation using fluorescence-labelled peptides as substrate at 420 uM after 90 mins by microfluidic peptide phosphorylation assay
T2 sequence (whole entry): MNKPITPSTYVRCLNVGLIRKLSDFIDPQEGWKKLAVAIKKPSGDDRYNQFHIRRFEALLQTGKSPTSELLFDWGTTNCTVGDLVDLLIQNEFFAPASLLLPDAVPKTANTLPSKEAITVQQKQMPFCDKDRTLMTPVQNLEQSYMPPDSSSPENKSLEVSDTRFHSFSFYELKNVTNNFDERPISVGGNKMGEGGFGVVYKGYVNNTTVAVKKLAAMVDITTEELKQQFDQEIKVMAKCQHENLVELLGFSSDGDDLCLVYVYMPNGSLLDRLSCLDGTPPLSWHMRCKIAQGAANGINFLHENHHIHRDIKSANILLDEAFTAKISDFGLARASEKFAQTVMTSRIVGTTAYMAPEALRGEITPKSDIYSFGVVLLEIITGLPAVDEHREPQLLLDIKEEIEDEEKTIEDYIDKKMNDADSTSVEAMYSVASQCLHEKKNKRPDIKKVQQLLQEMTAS

[11] = target: Calcium/calmodulin-dependent protein kinase type II subunit delta (Homo sapiens) (UniProt Q13557); test: Inhibition of human full length CAMK2D expressed in baculovirus assessed as substrate phosphorylation using fluorescence-labelled peptides as substrate at 9 uM after 90 mins by microfluidic peptide phosphorylation assay
Calcium/calmodulin-dependent protein kinase type II subunit delta (Homo sapiens), sequence (Q13557 whole entry, the tested form may be a part): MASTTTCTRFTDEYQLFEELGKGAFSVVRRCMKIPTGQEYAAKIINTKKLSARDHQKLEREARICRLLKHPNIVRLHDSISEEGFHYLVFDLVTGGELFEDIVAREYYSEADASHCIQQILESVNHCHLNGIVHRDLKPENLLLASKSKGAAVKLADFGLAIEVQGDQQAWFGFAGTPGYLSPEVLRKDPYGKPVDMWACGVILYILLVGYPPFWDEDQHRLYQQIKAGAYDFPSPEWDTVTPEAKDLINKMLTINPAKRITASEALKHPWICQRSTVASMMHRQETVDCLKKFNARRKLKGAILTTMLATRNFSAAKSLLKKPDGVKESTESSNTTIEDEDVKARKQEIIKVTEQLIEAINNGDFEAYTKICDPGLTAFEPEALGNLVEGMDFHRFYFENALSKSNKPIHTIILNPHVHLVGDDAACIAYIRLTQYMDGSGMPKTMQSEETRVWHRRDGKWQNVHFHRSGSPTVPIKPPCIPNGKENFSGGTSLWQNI

[12] = target: Calcium/calmodulin-dependent protein kinase type II subunit beta (Homo sapiens) (UniProt Q13554); test: Inhibition of human CAMK2 beta catalytic domain expressed in baculovirus assessed as substrate phosphorylation using fluorescence-labelled peptides as substrate at 70 uM after 90 mins by microfluidic peptide phosphorylation assay
Calcium/calmodulin-dependent protein kinase type II subunit beta (Homo sapiens), sequence (Q13554 whole entry, the tested form may be a part): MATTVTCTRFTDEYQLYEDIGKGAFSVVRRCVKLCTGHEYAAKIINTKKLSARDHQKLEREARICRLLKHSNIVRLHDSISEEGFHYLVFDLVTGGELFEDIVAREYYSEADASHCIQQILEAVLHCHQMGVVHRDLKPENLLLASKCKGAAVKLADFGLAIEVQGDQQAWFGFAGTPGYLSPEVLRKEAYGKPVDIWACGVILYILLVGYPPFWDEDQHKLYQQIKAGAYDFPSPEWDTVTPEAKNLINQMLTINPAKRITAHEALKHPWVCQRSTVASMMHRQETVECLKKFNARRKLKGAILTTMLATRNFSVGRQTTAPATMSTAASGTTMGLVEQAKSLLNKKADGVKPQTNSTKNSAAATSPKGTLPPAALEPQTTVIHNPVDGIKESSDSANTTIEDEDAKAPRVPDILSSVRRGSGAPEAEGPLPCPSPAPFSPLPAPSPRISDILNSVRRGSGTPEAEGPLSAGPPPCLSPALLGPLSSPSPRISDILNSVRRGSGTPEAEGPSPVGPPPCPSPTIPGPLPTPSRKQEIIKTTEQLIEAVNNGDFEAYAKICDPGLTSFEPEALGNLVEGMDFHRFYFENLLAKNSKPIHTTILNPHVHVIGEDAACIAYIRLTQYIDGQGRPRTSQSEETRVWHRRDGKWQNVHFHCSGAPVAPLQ

SMILES: NCCc1ccc(-c2ncnc3[nH]cnc23)cc1
- inhibition [1]: 39.5%
- inhibition [2]: 72%

SMILES: Clc1ccc(C2(c3ccc(-c4ncnc5[nH]cnc45)cc3)CCNCC2)cc1
- inhibition [3]: 15%
- inhibition [4]: 87.5%
- inhibition [5]: 9.5%
- inhibition [6]: 13%

SMILES: NC1(Cc2ccc(Cl)cc2)CCN(c2ncnc3[nH]ccc23)CC1
- inhibition [7]: 6%

SMILES: c1nc(N2CCOCC2)c2nc[nH]c2n1
- inhibition [8]: 73.5%
- inhibition [9]: 42%
- inhibition [10]: 74.5%

SMILES: NCC1CN(c2ncnc3[nH]c4cnccc4c23)CCO1 (configuration not stated)
- inhibition [11]: 42.5%

SMILES: CNCc1ccc(-c2ncnc3[nH]cnc23)cc1
- inhibition [12]: 6.5%
